In US8637511B2, “Aminopyrimidines useful as kinase inhibitors” (Vertex Pharmaceuticals Incorporated, priority 2005, dated 2014):
Like-named read-outs stand apart in the source and are kept apart here.

Key:
JAK3 = biological target: T1, JAK3 (Homo sapiens, UniProt P52333); test: biochemical
T1 sequence (P52333 1-1124): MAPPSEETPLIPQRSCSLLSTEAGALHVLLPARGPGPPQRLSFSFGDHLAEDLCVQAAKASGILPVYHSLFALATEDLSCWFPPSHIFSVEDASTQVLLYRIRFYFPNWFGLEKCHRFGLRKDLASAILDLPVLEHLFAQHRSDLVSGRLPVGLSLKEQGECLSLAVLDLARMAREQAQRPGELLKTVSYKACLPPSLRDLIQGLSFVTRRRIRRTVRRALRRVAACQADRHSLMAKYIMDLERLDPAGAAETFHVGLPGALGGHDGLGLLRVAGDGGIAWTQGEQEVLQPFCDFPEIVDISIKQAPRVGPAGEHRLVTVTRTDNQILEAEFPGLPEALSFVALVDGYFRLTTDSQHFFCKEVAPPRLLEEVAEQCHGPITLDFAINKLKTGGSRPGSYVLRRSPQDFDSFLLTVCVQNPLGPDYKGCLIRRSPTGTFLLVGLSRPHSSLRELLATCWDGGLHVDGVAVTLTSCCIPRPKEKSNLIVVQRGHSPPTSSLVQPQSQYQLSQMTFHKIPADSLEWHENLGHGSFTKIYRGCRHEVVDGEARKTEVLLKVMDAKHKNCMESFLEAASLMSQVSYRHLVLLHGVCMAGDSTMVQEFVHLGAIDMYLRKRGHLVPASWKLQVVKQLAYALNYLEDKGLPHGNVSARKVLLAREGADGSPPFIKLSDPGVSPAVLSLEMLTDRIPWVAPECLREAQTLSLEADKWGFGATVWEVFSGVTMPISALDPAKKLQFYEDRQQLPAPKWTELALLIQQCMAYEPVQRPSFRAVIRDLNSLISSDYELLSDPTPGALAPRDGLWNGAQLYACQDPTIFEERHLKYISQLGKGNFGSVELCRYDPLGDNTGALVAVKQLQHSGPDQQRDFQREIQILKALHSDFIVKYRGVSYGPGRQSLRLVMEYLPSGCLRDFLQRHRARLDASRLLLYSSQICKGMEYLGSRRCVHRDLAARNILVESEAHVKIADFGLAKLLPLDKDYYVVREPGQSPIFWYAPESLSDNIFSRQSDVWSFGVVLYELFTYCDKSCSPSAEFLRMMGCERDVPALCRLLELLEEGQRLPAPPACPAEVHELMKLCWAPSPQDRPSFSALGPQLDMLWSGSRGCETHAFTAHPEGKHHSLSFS
Method: Reactions were carried out in a kinase buffer containing 100 mM HEPES (pH 7.4), 1 mM DTT, 10 mM MgCl2, 25 mM NaCl, and 0.01% BSA. Substrate concentrations in the assay were 5 μM ATP (200 uCi/μmole ATP) and 1 μM poly(Glu)4Tyr. Reactions were carried out at 25° C. and 1 nM JAK3.
To each well of a 96 well polycarbonate plate was added 1.5 μl of a candidate JAK3 inhibitor along with 50 μl of kinase buffer containing 2 μM poly(Glu)4Tyr and 10 μM ATP. This was then mixed and 50 μl of kinase buffer containing 2 nM JAK3 enzyme was added to start the reaction. After 20 minutes at room temperature (25 C), the reaction was stopped with 50 μl of 20% trichloroacetic acid (TCA) that also contained 0.4 mM ATP. The entire contents of each well were then transferred to a 96 well glass fiber filter plate using a TomTek Cell Harvester. After washing, 60 μl of scintillation fluid was added and ^33P incorporation detected on a Perkin Elmer TopCount.

FLT-3 = biological target: T2, FLT-3 (Homo sapiens, UniProt P36888); test: FLT-3 inhibition assay, radiometric filter-binding; type: biochemical
T2 sequence (P36888 27-993): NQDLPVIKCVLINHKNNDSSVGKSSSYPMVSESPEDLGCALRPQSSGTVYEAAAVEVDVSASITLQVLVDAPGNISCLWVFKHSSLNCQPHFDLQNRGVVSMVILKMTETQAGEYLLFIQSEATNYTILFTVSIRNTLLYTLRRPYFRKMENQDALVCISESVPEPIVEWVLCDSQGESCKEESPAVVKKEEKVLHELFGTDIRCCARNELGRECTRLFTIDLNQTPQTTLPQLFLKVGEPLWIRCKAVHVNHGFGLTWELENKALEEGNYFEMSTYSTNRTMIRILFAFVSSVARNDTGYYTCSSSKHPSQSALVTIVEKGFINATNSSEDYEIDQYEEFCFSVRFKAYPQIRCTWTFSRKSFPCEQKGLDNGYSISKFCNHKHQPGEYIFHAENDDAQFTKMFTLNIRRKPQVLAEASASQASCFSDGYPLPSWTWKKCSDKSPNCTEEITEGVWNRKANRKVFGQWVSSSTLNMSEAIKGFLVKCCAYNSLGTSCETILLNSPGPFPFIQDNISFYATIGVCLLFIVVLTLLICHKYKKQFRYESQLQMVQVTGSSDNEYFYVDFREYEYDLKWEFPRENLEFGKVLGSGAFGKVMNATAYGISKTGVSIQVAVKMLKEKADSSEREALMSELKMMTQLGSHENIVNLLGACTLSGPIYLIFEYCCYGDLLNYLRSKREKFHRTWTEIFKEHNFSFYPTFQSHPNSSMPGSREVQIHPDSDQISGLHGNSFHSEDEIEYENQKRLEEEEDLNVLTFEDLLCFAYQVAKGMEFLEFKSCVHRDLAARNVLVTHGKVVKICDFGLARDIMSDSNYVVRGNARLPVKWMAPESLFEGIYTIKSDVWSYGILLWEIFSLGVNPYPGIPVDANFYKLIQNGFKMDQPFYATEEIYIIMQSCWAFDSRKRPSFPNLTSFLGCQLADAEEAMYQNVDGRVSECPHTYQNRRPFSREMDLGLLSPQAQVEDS
Method: This assay monitors the 33P incorporation into a substrate poly(Glu, Tyr) 4:1 (pE4Y). […] Final substrate concentrations in the assay were 90 μM ATP and 0.5 mg/ml pE4Y (both from Sigma Chemicals, St. Louis, Mo.). […] Reactions were carried out at room temperature.
Two assay solutions were prepared. Solution 1 contains 100 mM HEPES (pH 7.5), 10 mM MgCl2, 25 mM NaCl, 1 mg/ml pE4Y and […] (containing 0.3 mCi of [γ-33^P]ATP for each reaction). Solution 2 contains 100 mM HEPES (pH 7.5), 10 mM MgCl2, 25 mM NaCl, 2 mM DTT, 0.02% BSA and 3 nM FLT-3. The assay was run on a 96 well plate by mixing 50 μl each of Solution 1 and […] of the compounds of the present invention. The reaction was initiated with Solution 2. […] All of the reaction volume was then transferred to a filter plate and washed with 5% TCA by a Harvester 9600 from TOMTEC (Hamden, Conn.). The amount of ^33P incorporation into pE4y was analyzed by a Packard Top Count Microplate Scintillation Counter (Meriden, Conn.). The data was fitted using Prism software to get an IC50 or Ki.

Colo205 cells = test: Analysis of cell proliferation and viability; type: cell-based; details: Homo sapiens, read-out: IC50 value
[1] = COLO 205, Colo205 cells, incubated for 96 hours
[2] = COLO 205, Colo205 cells, incubated for 72 hours

SMILES | Ki (JAK3) [nM] | Ki (FLT-3) [nM] | IC50 (Colo205 cells; [1]) [nM] | Ki (JAK3; read-out: JAK3 Ki value) [nM] | Ki (FLT-3; read-out: FLT-3 Ki value) [nM] | IC50 (Colo205 cells; [2]) [nM] | IC50 (Colo205 cells; COLO 205, 96 h) [nM]
Cc1cnc(Nc2cc(N3CC(N(C)C)C3)nc(Sc3ccc(NC(=O)C4CC4)cc3)n2)s1 [Compound 1] | 10 to 500 | 50 to 150 | 50 to 1000 | – | – | – | –
Cc1cnc(Nc2cc(N3CC(N)C3)nc(Sc3ccc(NC(=O)C4CC4)cc3)n2)s1 [Compound 2] | 500 to 2000 | ≤ 50 | 50 to 1000 | – | – | – | –
Cc1cnc(Nc2cc(N3CC(O)C3)nc(Sc3ccc(NC(=O)C4CC4)cc3)n2)s1 [Compound 3] | – | ≤ 50 | > 1000 | 10 to 500 | – | – | –
Cc1cnc(Nc2cc(N3CCC3)nc(Sc3ccc(NC(=O)C4CC4)cc3)n2)s1 [Compound 4] | 500 to 2000 | 50 to 150 | 50 to 1000 | – | – | – | –
CC1=NN=C(Nc2cc(N3CCC3)nc(Sc3ccc(NC(=O)c4ccccc4Cl)cc3)n2)C1 [Compound 5] | – | – | 50 to 1000 | 10 to 500 | 50 to 150 | 30 to 200 | –
CC1=NN=C(Nc2cc(N3CCC3)nc(Sc3ccc(NC(=O)C4CCCN4C)cc3)n2)C1 (stereo not drawn) [Compound 6] | – | 150 to 1000 | 50 to 1000 | – | – | – | –
Cc1cc(Nc2cc(N3CCC3)nc(Sc3ccc(NC(=O)c4c(F)cccc4N4CCC4)cc3)n2)n[nH]1 [Compound 8] | 10 to 500 | 50 to 150 | 50 to 1000 | – | – | – | –
Cc1cc(Nc2cc(N3CCC3)nc(Sc3ccc(N(C)C(=O)c4ccccc4F)cc3)n2)n[nH]1 [Compound 10] | 10 to 500 | 50 to 150 | – | – | – | – | –
COC1CN(c2cc(Nc3cc(C)[nH]n3)nc(Sc3ccc(NC(=O)c4ccccc4Cl)cc3)n2)C1 [Compound 12] | ≤ 10 | 50 to 150 | ≤ 50 | – | – | – | –
CCC(=O)Nc1ccc(Sc2nc(Nc3cc(C)[nH]n3)cc(N3CCC3)n2)cc1 [Compound 14] | – | – | – | 10 to 500 | 50 to 150 | – | 50 to 1000
CCC(=O)Nc1ccc(Sc2nc(Nc3cc(C)[nH]n3)cc(N3CC(O)C3)n2)cc1 [Compound 15] | 10 to 500 | 50 to 150 | 50 to 1000 | – | – | – | –
Cc1cc(Nc2cc(N3CC(C#N)C3)nc(Sc3ccc(NC(=O)c4ccccc4Cl)cc3)n2)n[nH]1 [Compound 16] | 10 to 500 | 50 to 150 | 50 to 1000 | – | – | 30 to 200 | –
Cc1cc(Nc2cc(N3CCC3)nc(Sc3ccc(NC(=O)C4CC4)cc3)n2)n[nH]1 [Compound 17] | 10 to 500 | – | 50 to 1000 | – | 50 to 150 | – | –
Cc1cc(Nc2cc(N3CCC3)nc(Sc3ccc(C(=O)NCc4ccccc4)cc3)n2)n[nH]1 [Compound 19] | 10 to 500 | 150 to 1000 | > 1000 | – | – | – | –
CCNC(=O)c1ccc(Sc2nc(Nc3cc(C)[nH]n3)cc(N3CCC3)n2)cc1 [Compound 20] | 10 to 500 | 50 to 150 | 50 to 1000 | – | – | – | –
Cc1cc(Nc2cc(N3CCC3)nc(Sc3ccc(C(=O)N4CCCC4)cc3)n2)n[nH]1 [Compound 22] | 10 to 500 | 50 to 150 | > 1000 | – | – | – | –

SMILES | Ki (JAK3) [nM] | Ki (FLT-3) [nM] | IC50 (Colo205 cells; [1]) [nM] | Ki (JAK3; read-out: JAK3 Ki value) [nM] | Ki (FLT-3; read-out: FLT-3 Ki value) [nM] | IC50 (Colo205 cells; [2]) [nM] | IC50 (Colo205 cells; COLO 205, 96 h) [nM]
Cc1cc(Nc2cc(N3CCC3)nc(Sc3ccc(C(=O)NC4CCCC4)cc3)n2)n[nH]1 [Compound 23] | 500 to 2000 | – | > 1000 | – | 150 to 1000 | – | –
Cc1cc(Nc2cc(N3CCC3)nc(Sc3ccc(C(=O)NCc4ccccc4Cl)cc3)n2)n[nH]1 [Compound 24] | 500 to 2000 | 150 to 1000 | > 1000 | – | – | – | –
Cc1cc(Nc2cc(N3CCC3)nc(Sc3ccc4ccccc4c3)n2)n[nH]1 [Compound 25] | ≤ 10 | ≤ 50 | > 1000 | – | – | – | –
Cc1cc(Nc2cc(N3CCC3)nc(Sc3ccc(NC(=O)OC(C)(C)C)cc3)n2)n[nH]1 [Compound 26] | 500 to 2000 | 50 to 150 | > 1000 | – | – | – | –
Cc1ccc(S(=O)(=O)Nc2ccc(Sc3nc(Nc4cc(C)[nH]n4)cc(N4CCC4)n3)cc2)cc1 [Compound 27] | 500 to 2000 | 50 to 150 | > 1000 | – | – | – | –
Cc1ccc(C(=O)Nc2ccc(Sc3nc(Nc4cc(C)[nH]n4)cc(N4CCC4)n3)cc2)cc1 [Compound 28] | 10 to 500 | 150 to 1000 | 50 to 1000 | – | – | – | –
Cc1cc(Nc2cc(N3CCC3)nc(Sc3ccc(NC(=O)C4CCCCC4)cc3)n2)n[nH]1 [Compound 30] | 10 to 500 | – | 50 to 1000 | – | 150 to 1000 | – | –
Cc1cc(Nc2cc(N3CCC3)nc(Sc3ccc(NC(=O)Cc4ccccc4)cc3)n2)n[nH]1 [Compound 35] | 500 to 2000 | 50 to 150 | 50 to 1000 | – | – | – | –
Cc1cc(Nc2cc(N3CC(C)C3)nc(Sc3ccc(NC(=O)c4ccccc4Cl)cc3)n2)n[nH]1 [Compound 39] | – | 50 to 150 | 50 to 1000 | 10 to 500 | – | – | –
Cc1cc(Nc2cc(N3CCC3)nc(Sc3ccc(NC(=O)CC(F)(F)F)cc3)n2)n[nH]1 [Compound 40] | – | 50 to 150 | 50 to 1000 | 10 to 500 | – | 30 to 200 | –
Cc1cc(Nc2cc(N3CCC3)nc(Sc3ccc(NC(=O)c4ccc(F)cc4F)cc3)n2)n[nH]1 [Compound 44] | – | 150 to 1000 | 50 to 1000 | 10 to 500 | – | – | –
Cc1cc(Nc2cc(N3CCC3)nc(Sc3ccc(C(=O)Nc4ccccc4Cl)cc3)n2)[nH]n1 [Compound 48] | – | 150 to 1000 | 50 to 1000 | 10 to 500 | – | – | –
Cc1cc(Nc2cc(N3CCC3)nc(Sc3cccc(NC(=O)c4ccccc4Cl)c3)n2)[nH]n1 [Compound 49] | – | 150 to 1000 | > 1000 | 10 to 500 | – | – | –
CC1=NN=C(Nc2cc(N3CCC3)nc(Sc3ccc(NC(=O)c4ccccc4)cc3)n2)C1 [Compound 52] | 10 to 500 | – | 50 to 1000 | – | 150 to 1000 | – | –
Cc1cc(Nc2cc(N3CCC3)nc(Sc3ccc(NC(=O)c4ccc(Cl)cc4)cc3)n2)n[nH]1 [Compound 54] | 10 to 500 | 150 to 1000 | 50 to 1000 | – | – | – | –
Cc1cc(Nc2cc(N3CC(F)(C4CC4)C3)nc(Sc3ccc(N)cc3)n2)[nH]n1 [Compound 209] | ≤ 10 | ≤ 50 | – | – | – | – | –
